Experimental data from ChEMBL document CHEMBL5352490, “SAR investigation and optimization of benzimidazole-based derivatives as antimicrobial agents against Gram-negative bacteria” (Eur J Med Chem, 2023).
Values after ≈ are worked out from the molar mass of the structure shown.

Experiments:
[1] = test system: Escherichia coli; experiment: Antibacterial activity against Escherichia coli tolC mutant incubated for 24 hrs by broth microdilution method; assay type: functional
[2] = Cytotoxicity against African green monkey Vero cells assessed as reduction in cell viability incubated for 24 hrs by MTS assay; assay type: toxicity, cell-based; conditions: chlorocebus sabaeus
[3] = test system: Escherichia coli; experiment: Bacteriostatic effect in Escherichia coli JW55031 assessed as log reduction in bacterial burden at 10 times MIC measured after 24 hrs by time kill assay; assay type: functional
[4] = test system: Escherichia coli; experiment: Bacteriostatic effect in Escherichia coli JW55031 assessed as log reduction in bacterial count at 5 times MIC measured at 24 hrs by time kill assay; assay type: functional
[5] = test system: Escherichia coli; experiment: Bacteriostatic effect in Escherichia coli JW55031 assessed as log reduction in bacterial count at 10 times MIC measured at 24 hrs by time kill assay; assay type: functional
[6] = test system: Escherichia coli; experiment: Antibacterial activity against wild type Escherichia coli BW25113 incubated for 24 hrs in absence of colistin by broth microdilution method; assay type: functional
[7] = test system: Escherichia coli; experiment: Synergistic antibacterial activity against wild type Escherichia coli BW25113 incubated for 24 hrs in presence of colistin by broth microdilution method; assay type: functional
[8] = test system: Klebsiella pneumoniae; experiment: Antibacterial activity against Klebsiella pneumoniae ATCC 1706 incubated for 24 hrs in absence of colistin by broth microdilution method; assay type: functional
[9] = test system: Klebsiella pneumoniae; experiment: Synergistic antibacterial activity against Klebsiella pneumoniae ATCC 1706 incubated for 24 hrs in presence of colistin by broth microdilution method; assay type: functional
[10] = test system: Acinetobacter baumannii; experiment: Antibacterial activity against Acinetobacter baumannii ATCC 19606 incubated for 24 hrs in absence of colistin by broth microdilution method; assay type: functional
[11] = test system: Acinetobacter baumannii; experiment: Synergistic antibacterial activity against Acinetobacter baumannii ATCC 19606 incubated for 24 hrs in presence of colistin by broth microdilution method; assay type: functional
[12] = test system: Pseudomonas aeruginosa; experiment: Antibacterial activity against Pseudomonas aeruginosa ATCC 9027 incubated for 24 hrs in absence of colistin by broth microdilution method; assay type: functional
[13] = test system: Pseudomonas aeruginosa; experiment: Synergistic antibacterial activity against Pseudomonas aeruginosa ATCC 9027 incubated for 24 hrs in presence of colistin by broth microdilution method; assay type: functional

| Compound | MIC [1] | other results |
| --- | --- | --- |
| Cc1ccc(Cn2c(-c3cccc(NS(C)(=O)=O)c3)nc3cc(N)ccc32)cc1 | > 64 µg/mL |  |
| Cc1ccc(Cn2c(-c3cccc(C(=N)N)c3)nc3ccccc32)cc1 | 32 µg/mL (≈ 94 µM) |  |
| CS(=O)(=O)Nc1cccc(-c2nc3ccccc3n2Cc2ccc(-c3ncon3)cc2)c1 | > 64 µg/mL |  |
| Cc1ccc(Cn2c(-c3cccc(NS(=O)(=O)c4ccc(OC(F)(F)F)cc4)c3)nc3ccccc32)cc1 | > 64 µg/mL |  |
| Cc1ccc(Cn2c(-c3cccc(NS(C)(=O)=O)c3)nc3ccc(Br)cc32)cc1 | > 64 µg/mL |  |
| Cc1ccc(Cn2c(-c3cccc(-c4ncon4)c3)nc3ccccc32)cc1 | > 64 µg/mL |  |
| Cc1ccc(Cn2c(-c3cccc(NS(=O)(=O)c4ccc(Cl)cc4)c3)nc3ccccc32)cc1 | 2 µg/mL (≈ 4.1 µM) |  |
| Cc1ccc(Cn2c(-c3cccc(NS(=O)(=O)c4ccc(-c5ccccc5)cc4)c3)nc3ccccc32)cc1 | > 64 µg/mL |  |
| Cc1ccc(Cn2c(-c3cccc(-c4nnn[nH]4)c3)nc3ccccc32)cc1 | 8 µg/mL (≈ 21.8 µM) |  |
| Cc1ccc(Cn2c(-c3cccc(NS(=O)(=O)c4ccc5ccccc5c4)c3)nc3ccccc32)cc1 | > 64 µg/mL |  |
| Cc1ccc(Cn2c(-c3cccc(NS(C)(=O)=O)c3)nc3cc(Br)ccc32)cc1 | > 64 µg/mL |  |
| Cc1ccc(Cn2c(-c3cccc(NS(C)(=O)=O)c3)nc3cc(C(F)(F)F)ccc32)cc1 | > 64 µg/mL |  |
| Cc1ccc(Cn2c(-c3cccc(NS(C)(=O)=O)c3)nc3cc(C(=O)O)ccc32)cc1 | > 64 µg/mL |  |
| CCOC(=O)Nc1ccc2nc(-c3cccc(NS(C)(=O)=O)c3)n(Cc3ccc(C)cc3)c2c1 | > 64 µg/mL |  |
| Cc1ccc(Cn2c(-c3cccc(NS(=O)(=O)c4ccc([N+](=O)[O-])cc4)c3)nc3ccccc32)cc1 | > 64 µg/mL |  |
| Cc1ccc(Cn2c(-c3cccc(NS(=O)(=O)c4ccc(N)cc4)c3)nc3ccccc32)cc1 | > 64 µg/mL |  |
| CS(=O)(=O)Nc1cccc(-c2nc3ccccc3n2Cc2ccc(-c3nnn[nH]3)cc2)c1 | > 64 µg/mL |  |
| GENTAMICIN | 0.25 µg/mL |  |
| Cc1ccc(Cn2c(-c3cccc(NS(=O)(=O)c4ccc(F)c(F)c4)c3)nc3ccccc32)cc1 | 1 µg/mL (≈ 2.04 µM) |  |
| Cc1ccc(Cn2c(-c3cccc(NS(=O)(=O)c4ccc(C)cc4)c3)nc3ccccc32)cc1 | 2 µg/mL (≈ 4.28 µM) |  |
| CC(=O)NC[C@H]1CN(c2ccc(N3CCOCC3)c(F)c2)C(=O)O1 [LINEZOLID] | 8 µg/mL (≈ 23.7 µM) |  |
| Cc1ccc(Cn2c(-c3cccc(NS(=O)(=O)c4cccc(N)c4)c3)nc3ccccc32)cc1 | 2 µg/mL (≈ 4.27 µM) |  |
| Cc1ccc(Cn2c(-c3cccc(NS(C)(=O)=O)c3)nc3cc(C#N)ccc32)cc1 | > 64 µg/mL |  |
| Cc1ccc(Cn2c(-c3cccc(NS(=O)(=O)C4CC4)c3)nc3ccccc32)cc1 | 1 µg/mL (≈ 2.4 µM) |  |
| Cc1ccc(Cn2c(-c3cccc(NS(=O)(=O)c4cccc(Br)c4)c3)nc3ccccc32)cc1 | 0.5 µg/mL (≈ 0.939 µM) |  |
| Cc1ccc(Cn2c(-c3cccc(NS(=O)(=O)c4ccc(C(F)(F)F)cc4)c3)nc3ccccc32)cc1 | > 64 µg/mL |  |
| Cc1ccc(Cn2c(-c3cccc(NS(=O)(=O)c4cccc(Cl)c4)c3)nc3ccccc32)cc1 | 0.125 µg/mL (≈ 0.256 µM) | CC50 at 24 h [2]: > 128 µg/mL; log(activity) [3]: 0.4; log(activity) [4]: 2.54; log(activity) [5]: 2.9; MIC [6]: > 64 µg/mL; MIC [7]: 16 µg/mL; MIC [8]: > 64 µg/mL; MIC [9]: 8 µg/mL; MIC [10]: > 64 µg/mL; MIC [11]: 4 µg/mL; MIC [12]: > 64 µg/mL; MIC [13]: 16 µg/mL |

| Compound | MIC [1] | other results |
| --- | --- | --- |
| CCOC(=O)c1ccc2c(c1)nc(-c1cccc(NS(C)(=O)=O)c1)n2Cc1ccc(C)cc1 | > 64 µg/mL |  |
| Cc1ccc(Cn2c(-c3cccc(NS(C)(=O)=O)c3)nc3ccc(C(=N)NO)cc32)cc1 | > 64 µg/mL |  |
| CCOC(=O)c1cccc2nc(-c3cccc(NS(C)(=O)=O)c3)n(Cc3ccc(C)cc3)c12 | > 64 µg/mL |  |
| Cc1ccc(Cn2c(-c3cccc(NS(C)(=O)=O)c3)nc3ccc(C)cc32)cc1 | > 64 µg/mL |  |
| Cc1ccc(Cn2c(-c3cccc(NS(C)(=O)=O)c3)nc3cccc(C(=O)O)c32)cc1 | > 64 µg/mL |  |
| Cc1ccc(Cn2c(-c3cccc(NS(C)(=O)=O)c3)nc3ccc(C#N)cc32)cc1 | > 64 µg/mL |  |
| CC(=O)Nc1ccc(S(=O)(=O)Nc2cccc(-c3nc4ccccc4n3Cc3ccc(C)cc3)c2)cc1 | > 64 µg/mL |  |
| Cc1ccc(Cn2c(-c3cccc(NS(C)(=O)=O)c3)nc3cc(C(=N)NO)ccc32)cc1 | > 64 µg/mL |  |
| Cc1ccc(Cn2c(-c3cccc(NS(=O)(=O)c4ccc(C(C)(C)C)cc4)c3)nc3ccccc32)cc1 | > 64 µg/mL |  |
| Cc1ccc(Cn2c(-c3cccc(NS(=O)(=O)c4ccc(C(C)C)cc4)c3)nc3ccccc32)cc1 | > 64 µg/mL |  |
| CCOC(=O)Nc1ccc2c(c1)nc(-c1cccc(NS(C)(=O)=O)c1)n2Cc1ccc(C)cc1 | > 64 µg/mL |  |
| CC[C@H]1OC(=O)[C@H](C)[C@@H](O[C@H]2C[C@@](C)(OC)[C@@H](O)[C@H](C)O2)[C@H](C)[C@@H](O[C@@H]2O[C@H](C)C[C@H](N(C)C)[C@H]2O)[C@](C)(O)C[C@@H](C)C(=O)[C@H](C)[C@@H](O)[C@]1(C)O [ERYTHROMYCIN] |  | MIC [6]: 32 µg/mL (≈ 43.6 µM); MIC [7]: 2 µg/mL; MIC [8]: 64 µg/mL (≈ 87.2 µM); MIC [9]: 4 µg/mL; MIC [10]: 8 µg/mL (≈ 10.9 µM); MIC [11]: 0.25 µg/mL; MIC [12]: > 64 µg/mL; MIC [13]: 8 µg/mL |
| Cc1ccc(Cn2c(-c3cccc(NS(C)(=O)=O)c3)nc3ccccc32)cc1 | 2 µg/mL (≈ 5.11 µM) |  |
| COc1ccc(S(=O)(=O)Nc2cccc(-c3nc4ccccc4n3Cc3ccc(C)cc3)c2)cc1OC | 4 µg/mL (≈ 7.79 µM) |  |
| COc1ccc(S(=O)(=O)Nc2cccc(-c3nc4ccccc4n3Cc3ccc(C)cc3)c2)cc1 | 4 µg/mL (≈ 8.27 µM) |  |
| Cc1ccc(Cn2c(-c3cccc(NS(=O)(=O)c4ccccc4[N+](=O)[O-])c3)nc3ccccc32)cc1 | 1 µg/mL (≈ 2.01 µM) |  |
| Cc1ccc(Cn2c(-c3cccc(NS(C)(=O)=O)c3)nc3ccc(N)cc32)cc1 | > 64 µg/mL |  |
| CCOC(=O)c1ccc2nc(-c3cccc(NS(C)(=O)=O)c3)n(Cc3ccc(C)cc3)c2c1 | > 64 µg/mL |  |
| Cc1ccc(Cn2c(-c3cccc(NS(=O)(=O)c4ccccc4)c3)nc3ccccc32)cc1 | 1 µg/mL (≈ 2.2 µM) |  |
| Cc1ccc(Cn2c(-c3cccc(NS(=O)(=O)c4ccc(F)c(Cl)c4)c3)nc3ccccc32)cc1 | 2 µg/mL (≈ 3.95 µM) |  |
| Cc1ccc(Cn2c(-c3cccc(NS(C)(=O)=O)c3)nc3ccc(C(=O)O)cc32)cc1 | > 64 µg/mL |  |
| Cc1ccc(Cn2c(-c3cccc(C(=N)NO)c3)nc3ccccc32)cc1 | > 64 µg/mL |  |
| CCCCCCCCCC(=O)N[C@@H](Cc1c[nH]c2ccccc12)C(=O)N[C@H](CC(N)=O)C(=O)N[C@@H](CC(=O)O)C(=O)N[C@@H]1C(=O)NCC(=O)N[C@@H](CCCN)C(=O)N[C@@H](CC(=O)O)C(=O)N[C@H](C)C(=O)N[C@@H](CC(=O)O)C(=O)NCC(=O)N[C@H](CO)C(=O)N[C@@H]([C@H](C)CC(=O)O)C(=O)N[C@@H](CC(=O)c2ccccc2N)C(=O)O[C@@H]1C |  | MIC [6]: > 128 µg/mL; MIC [7]: > 128 µg/mL; MIC [8]: > 128 µg/mL; MIC [9]: > 128 µg/mL; MIC [10]: > 128 µg/mL; MIC [11]: > 128 µg/mL; MIC [12]: > 128 µg/mL; MIC [13]: > 128 µg/mL |
| Cc1ccc(Cn2c(-c3cccc(NS(C)(=O)=O)c3)nc3cc(C)ccc32)cc1 | > 64 µg/mL |  |
| CS(=O)(=O)Nc1cccc(-c2nc3ccccc3n2Cc2ccc(C(=N)NO)cc2)c1 | > 64 µg/mL |  |
| Cc1ccc(Cn2c(-c3cccc(NS(=O)(=O)c4cccc([N+](=O)[O-])c4)c3)nc3ccccc32)cc1 | 2 µg/mL (≈ 4.01 µM) |  |
| Cc1ccc(Cn2c(-c3cccc(NS(=O)(=O)c4ccc(Br)cc4)c3)nc3ccccc32)cc1 | > 64 µg/mL |  |
